{
  "source": "patent US10942183B2",
  "about": "“Methods of detecting progesterone receptor and of detecting an expression level” (REGENTS OF THE UNIVERSITY OF MINNESOTA, priority 2017, dated 2021)",
  "key": {"breast cancer": {"test_system": "breast cancer", "details": "human, in vivo; cited from earlier work"}, "[1]": {"test_system": "SLC37A2 expression in BT474 cells", "assay": "SLC37A2 mRNA expression by RT-qPCR in BT474 cells", "type": "cell-based", "details": "unmodified BT474 cells, progestin plus onapristone", "method": "For reverse transcription quantitative polymerase chain reaction (RT-qPCR) assays, 5×10^5 cells/well were plated in six-well dishes, serum starved in modified IMEM for one day before treatment. RNA was extracted using TriPure reagent (Roche, Basel, Switzerland) and cDNA was created using the qScript cDNA SuperMix kit (Quanta Biosciences, Beverly, Mass.). Relative expression levels were determined by qPCR assays performed on a Roche Light-Cycler II using SYBR green master-mix (Roche, Basel, Switzerland). Target gene quantification levels were normalized to the expression of standard housekeeper genes: TBP, ACTB, 18S, and/or GAPDH.\nPR cooperation with one or more RUNX factors may be a mechanism for promoter selection by uniquely modified receptors. The family of RUNX transcription factors (RUNX1, 2, and 3) has complex roles in development and tumor formation with both tumor suppressive and tumor-promoting activities. […] From the GSEA results, SLC37A2, a candidate PR target gene containing multiple RUNX2 binding motifs immediately upstream and within the gene, was identified (FIG. 7A). SLC37A2 is a glucose-6-phosphate transporter expressed in monocytes as well as breast and cervical tissues. […] PR/progestin-dependent regulation of SLC37A2 mRNA expression in multiple cell line models was thus measured. […]"}, "BT474 cells": {"test_system": "BT474 cells", "assay": "Mammosphere formation in unmodified HER2+ BT474 cells", "type": "cell-based", "method": "Primary Mammospheres: Adherent cells were washed with PBS and dissociated enzymatically in 0.25% trypsin-EDTA (Invitrogen Corporation, Carlsbad, Calif.). Cells were sieved through a 40-μm sieve (BD FALCON, BD Biosciences, Bedford, Mass.) and analyzed microscopically for single-cellularity. Single cells were plated in ultra-low attachment plates (Corning, Inc., Corning, N.Y.) and cultured in a humid incubator. […] Mammosphere Forming Efficiency (MFE) % was calculated by the number of mammospheres per well/number of cells seeded per well.\nSecondary Mammospheres: Primary mammospheres were collected by centrifugation (5 min, 1000 rpm), and dissociated enzymatically in 0.25% typsin-EDTA. Cells were sieved through a 40-μm tip strainer (Bel-Art SP Scienceware, South Wayne, N.J.) and analyzed microscopically for single-cellularity. […] Mammosphere Forming Efficiency (MFE) % was calculated by the number of mammospheres per well/number of cells seeded per well.\nThe results were also validated in unmodified ER+/PR+BT474 cells. […] In this “high-kinase” context, PRs are readily phosphorylated on Ser294."}, "[2]": {"test_system": "human breast tumor tissue (tumor explants)", "assay": "Breast tumor explants cultured ex vivo, Ki-67 IHC (proliferation)", "type": "cell-based", "details": "ER+/PR+ tumor explants, 48 hours; progesterone 10 nM; estrogen 1 nM and 10 nM; n=6", "text": "De-identified breast tumor samples were collected after surgery and immediately processed for tissue explant maintenance on sponges in cell culture medium, as previously described (Ravindranathan et al. Nature Communications 2013, 4:1923). Samples were derived from six patients pathologically diagnosed with invasive ductal carcinoma (IDC) and scored positive for ER (94-100%) and PR (1-100%), and negative for HER2 expression. Tissue explants were starved in media containing hormone-stripped FBS for 24 hours, and then treated for 48 hours with (1) vehicle, (2) 1 nM estradiol, (3) 10 nM estradiol, (4) 1 nM progesterone, (5) 10 nM progesterone prior to processing for quantitation of Ki-67 levels by IHC. Across treatment conditions, statistical significance was tested for using one-way analysis-of-variance (ANOVA) followed by pairwise testing of all treatment groups using the TukeyHSD post-test with R statistical software (R Core Team: R: A language and environment for statistical computing. R Foundation for Statistical Computing, Vienna, Austria 2015, [available on the world wide web at r-project.org/]). In additional experiments, six explants were similarly treated with estrogen or progesterone (2 hours) but in combination with 1 uM U0126 (to inhibit ERKs 1/2) and phospho-Ser294 PR levels were measured by IHC. […]"}, "[3]": {"test_system": "PR Ser294 phosphorylation", "assay": "Breast tumor explants, phospho-Ser294 PR IHC", "type": "cell-based, human", "details": "progesterone 10 nM, 2 hours, IHC, n=6", "source_text": "De-identified breast tumor samples were collected after surgery and immediately processed for tissue explant maintenance on sponges in cell culture medium, as previously described (Ravindranathan et al. Nature Communications 2013, 4:1923). Samples were derived from six patients pathologically diagnosed with invasive ductal carcinoma (IDC) and scored positive for ER (94-100%) and PR (1-100%), and negative for HER2 expression. […] In additional experiments, six explants were similarly treated with estrogen or progesterone (2 hours) but in combination with 1 uM U0126 (to inhibit ERKs 1/2) and phospho-Ser294 PR levels were measured by IHC.\nER+ luminal tumors were maintained as explants as above and instead treated with either vehicle or progesterone (10 nM) for 2 hours in the presence or absence of the MEK1/2 inhibitor U0126 (1 nM) prior to IHC staining using specific antibodies for total and phospho-Ser294 PR as well as ER-alpha and phospho-ERK1/2 (n=6; see Methods)."}},
  "data": [
    {"smiles": "CC#C[C@]1(O)CC[C@H]2[C@@H]3CCC4=CC(=O)CCC4=C3[C@@H](c3ccc(N(C)C)cc3)C[C@@]21C", "note": "[mifepristone]", "values": [
      {"measurement": "outcome in clinical trials for breast cancer", "setting": "breast cancer", "value": "has not been successful"}
    ]},
    {"smiles": "CN(C)c1ccc([C@H]2C[C@]3(C)[C@@H](CC[C@]3(O)CCCO)[C@@H]3CCC4=CC(=O)CCC4=C32)cc1", "note": "[onapristone]", "values": [
      {"measurement": "effect on progestin-stimulated SLC37A2 mRNA expression", "setting": "[1]", "value": "effectively blocked"},
      {"measurement": "effect on basal and progestin-stimulated primary mammosphere formation", "setting": "BT474 cells; BT474, onapristone 100 or 1000 nM without or with R5020 10 nM", "value": "effectively reduced both basal and progestin-stimulated primary mammosphere formation"},
      {"measurement": "secondary mammosphere formation", "setting": "BT474 cells; BT474, onapristone-containing media", "value": "failed to form"}
    ]},
    {"smiles": "CC(=O)[C@H]1CC[C@H]2[C@@H]3CCC4=CC(=O)CC[C@]4(C)[C@H]3CC[C@]12C", "note": "[progesterone]", "values": [
      {"measurement": "percentage of Ki67-positive cells compared to vehicle treatment", "setting": "[2]", "value": "significantly higher percentage of Ki67-positive cells"},
      {"measurement": "PR Ser294 phosphorylation in tumor explants", "setting": "[3]", "value": "induced robust PR Ser294 phosphorylation"}
    ]}
  ]
}
